The source of these data is article PMC6796659, “Topoisomerase IB poisons induce histone H2A phosphorylation as a response to DNA damage in Leishmania infantum” (International Journal for Parasitology: Drugs and Drug …, 2019).

What is called CC50 is the concentration at which the toxic effect on the cells reaches its halfway point. As a reminder, the EC50 is the midpoint of the concentration-response curve.

Data set [1] deals with TopIB-DNA complexes in L. infantum promastigotes. As to the kind of experiment: SDS/K-DNA precipitation (in situ cleavage complex formation). Format: cell-based, Leishmania infantum. As to conditions: highest concentration 30 μM, 30 min, data not shown. How it is done:
In order to measure the fragmentation of DNA induced by Top poisons, L. infantum promastigotes, previously labeled with 0.5 mCi/mL [2–^14C] thymidine for 24 h, were exposed to different concentrations of indenoisoquinolines for 30 min, followed by precipitation with SDS/KCl, according to the method described previously ([Balaña-Fouce et al., 2012]). DNA fragmentation was determined as the percentage of total labeled DNA, and was calculated as follows: [(dpm in SDS/KCl drug - dpm in SDS/KCl solvent)/(dpm total incorporation)] x 100. Each experiment was run at least in triplicate.

Data set [2] is described as follows: Cytotoxicity on uninfected mouse splenocytes (Alamar Blue). Format: cell-based. The note with it: BALB/c, freshly isolated uninfected mouse splenocytes, non-infected mouse splenocytes, read-out: CC50 (μM) Murine Splenocytes. How it is done: Finally, the cytotoxicity of the compounds was assessed on freshly-isolated mouse splenocytes, which were obtained from uninfected BALB/c mice according to the protocol previously described. Viability of uninfected splenocytes was used to determine the cytotoxic concentration 50 (CC50) by means of the Alamar Blue staining method, according to manufacturer's recommendations (Invitrogen). Selectivity index (SI) for each compound was calculated as the ratio between the CC50 value obtained for splenic cells and the EC50 value for amastigotes.
(In general: Resazurin is reduced to fluorescent resorufin, in cell work by metabolically active cells.)

In data set [3] the test system is histone H2A (Thr128) in L. infantum promastigotes. In words: Histone H2A phosphorylation (γH2A) by Western blot. Format: cell-based, Leishmania infantum. The note with it: 10 μM, 0, 15, 60, 120 min. How it is done: To detect H2A phosphorylation by L. infantum promastigotes, parasites in exponential growing phase (5–6 x 10^6 cells/mL) were incubated at 26 °C with CPT derivatives and indenoisoquinolines at a final concentration in the supplemented 199 standard medium of 10 μM. Control cells were treated with the drug vehicle DMSO using concentrations below 0.1%. After 0, 15, 60 and 120-min incubations, promastigotes were harvested by centrifugation, washed twice in PBS and the pellet resuspended in lysis buffer containing 50 mM Tris (pH:7), 50 mM NaCl, 20 mM NaF, 0.1% Tween 20 and 2x protease inhibitors (PIERCE™ protease inhibitor mini tablets). Twenty micrograms of the different extracts were loaded onto 15% SDS-PAGE gels, electrophoresed and transferred to PVDF membranes (Immobilon-FL, Millipore) using a mini trans-blot electrophoretic transfer cell (Bio-Rad). Polyclonal γH2A antisera were used at a 1:2000 dilution and secondary goat anti-rabbit IgG IRDye680 (Li-Cor Biosciences) was used at a 1:15000 dilution. The peptide competition assay was done incubating the polyclonal γH2A antisera with 50 ng/mL of the appropriate peptide (with and without phosphorylation at Thr residue) in blocking buffer for 1 h at room temperature before blotting. Loading control was performed using a monoclonal α tubulin mouse antibody at 2 μg/mL (final concentration) and a goat anti-mouse IgG IRDye 800 (Li-Cor Biosciences) as secondary antibody. Bands were visualized in an Odissey® (Li-Cor Biosciences) infrared detection facility. The quantification of γH2A signal was done with Bio-Rad Quantity One Analysis Software.
For orientation: In western blotting, separated proteins are transferred to a membrane and probed.

Data set [4] concerns Leishmania topoisomerase IB (LTopIB). In words: Relaxation of supercoiled pSK DNA by recombinant LTopIB. Format: biochemical. The note with it: Table 1. How it is done:
Expression and purification of LTopIB and hTopIB were carried out according to a previously standardized protocol ([Villa et al., 2003]). The effect of indenoisoquinolines (compounds 1 to 20) on recombinant LTopIB and hTopIB was determined by measuring the relaxation of negatively supercoiled pBluescript-SK DNA plasmid (pSK). Briefly, in a total volume of 20 μL, 100 U of recombinant TopIB were incubated with 0.5 μg of pSK DNA in 10 mM Tris-HCl buffer (pH 7.5), 5 mM MgCl2, 5 mM dithiothreitol (DTT), 0.1 mM EDTA, […] bovine serum albumin, and 150 mM KCl. Different concentrations of indenoisoquinolines were also added. Following a 4-min incubation period at 25 °C, reactions were stopped with 1% (w/v) SDS, and incubated for one extra hour at 37 °C in the presence of 1 mg/mL proteinase K. Subsequently, samples were extracted with 1 vol phenol-chloroform mixture and were loaded on a 1% agarose gel containing 0.1 μg/mL ethidium bromide. The gel was run for 16 h at 4 V/cm, and the images were acquired using a G-Box system (Syngene, United Kingdom).

Data set [5] has as its system iRFP L. infantum promastigotes. In words: Antileishmanial activity on free-living iRFP L. infantum promastigotes (infrared fluorescence viability). Format: cell-based. The note with it: Leishmania infantum, 72 h, 26 °C. How it is done: Histone phosphorylation assays were performed in promastigotes of L. infantum BCN 150 strain, whereas the antiparasitic activity of the compounds was assessed on the transgenic strain that constitutively expresses the irfp gene encoding the infrared iRFP protein (iRFP L. infantum strain) ([Calvo-Álvarez et al., 2015]), which is derived from L. infantum BCN 150. Both strains were grown at 26 °C in M-199 medium (Gibco) supplemented with 25 mM HEPES pH 7.2, 0.1 mM adenine, 0.0005% (w/v) hemin, 2 μg/mL biopterin, 0.0001% (w/v) biotin, 10% (v/v) heat-inactivated fetal bovine serum (FBS) and an antibiotic cocktail comprising 50 U/mL penicillin and 50 μg/mL streptomycin.
The antileishmanial activity of the compounds was tested both in promastigotes and in amastigotes infecting mouse splenocytes. For this purpose, 384-well optical bottom black plates (Thermo Scientific) were seeded either with free-living iRFP L. infantum promastigotes or with splenic explants infected with iRFP L. infantum amastigotes, which were incubated at 26 °C or 37 °C, respectively. The viability of both iRFP L. infantum stages was measured by recording the fluorescence emitted by viable cells at 708 nm in an Odyssey (Li-Cor) infrared imaging system after a 72-h period of incubation with different concentrations of the compounds. Dose-response curves were obtained by plotting the infrared fluorescence emission of viable parasites vs. different concentrations of testing compounds and were fitted by nonlinear analysis using the Sigma-Plot 10.0 statistical package. The reduction of infrared emission with respect to the negative control was used to determine the 50% effective concentration to kill the parasites (EC50). Both controls and treated groups were tested with DMSO (drug vehicle) concentrations below 0.1%. All compounds and controls were assayed in triplicate.

The structures appear in SMILES notation.

For `NCCCn1c2c(c3ccccc3c1=O)C(=O)c1ccccc1-2` [Compound 2], the “protein-DNA complexes (SDS/K-DNA precipitable)” value in data set [1] is 10%. The CC50 in data set [2] turned out to be 0.59 ± 0.28 µM. The “γH2A signal (H2A phosphorylation), Western blot” value in data set [3] is recorded as “strong γH2A signaling”. Besides, the LTopIB inhibition result in data set [4] is on record as “+++ (inhibition at 1 μM)”. This molecule gave an EC50 in data set [5] of 0.34 ± 0.03 µM.
